Laboratory results as given in patent US11629171B2, “Beta-hairpin peptidomimetics” (POLYPHOR AG, priority 2017, dated 2023).
In brackets after ≈: the same amount, converted by molar mass. Where a SMILES comes first, the peptide text is derived from it. Bridges are numbered along the chain shown (N, C = ends). Roman numbers before positions name the chains, in order. [ ]: non-standard residue; d: D form. Hiv = CC(C)[C@H](O)C(=O)O; dDab = NCC[C@@H](N)C(=O)O; Dab = NCC[C@H](N)C(=O)O; Abu = CC[C@H](N)C(=O)O; Dap = NC[C@H](N)C(=O)O

Key:
[1] = system: human red blood cells (hRBC); test: Hemolysis; assay type: cell-based; conditions: red cells of human, 1 h, 200
Outline: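 Washed fresh hRBC (20% v/v) were incubated with peptides at 200 μg/mL for 1 h at 37° C with shaking at 300 rpm. Supernatant OD540 was read after centrifugation and dilution, blank-corrected, and expressed as percent of the 2% Triton X-100 (100% lysis) control; PBS with 10% water gave 0%.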

[2] = system: Acinetobacter baumannii DSM 30008; assay type: cell-based; conditions: DSM 30008
Outline: (§1)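 Cation-adjusted MH-II broth, 0.002% polysorbate 80, inoculum near 10^6 CFU/mL. MIC read visually after 18-20 h, 35° C; units μg/mL.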

[3] = system: Enterobacter cloacae 848840; assay type: cell-based; conditions: 848840
Outline: as §1

[4] = system: Klebsiella pneumoniae SSI #3010; assay type: cell-based; conditions: SSI #3010
Outline: as §1

[5] = system: Pseudomonas aeruginosa ATCC 27853; assay type: cell-based; conditions: ATCC 27853
Outline: as §1

[6] = system: Klebsiella pneumoniae 968733; assay type: cell-based; conditions: 968733
Outline: as §1

[7] = system: Acinetobacter baumannii 872842; assay type: cell-based; conditions: 872842
Outline: as §1

[8] = system: Escherichia coli ATCC 25922; assay type: cell-based; conditions: ATCC 25922
Outline: as §1

Escherichia coli 926415 = assay type: cell-based; conditions: 926415
Outline: as §1

male ICR mice = test: Tolerability in a mouse model (Maximum Tolerated Dose assay); assay type: in vivo; conditions: 2 × 40 mg/kg s.c. at a 12-hr interval, groups of 3
Outline: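 Peptides in 0.9% NaCl (pH 6.5-7.6) given s.c. at 30 or 40 mg/kg, twice 12 h apart, to groups of 3 male ICR mice (23±3 g). Acute toxic signs (mortality, convulsions, tremors, sedation) and autonomic effects (diarrhea, salivation, piloerection) observed for 30 min after each dose.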

SMILES | Hemolysis at 200 μg/mL [1] [%] | Acinetobacter baumannii DSM 30008 MIC [2] [µg/mL] | MIC [3] [µg/mL] | Klebsiella pneumoniae SSI #3010 MIC [4] [µg/mL] | Pseudomonas aeruginosa ATCC 27853 MIC [5] [µg/mL] | MIC [6] [µg/mL] | MIC [7] [µg/mL] | Escherichia coli ATCC 25922 MIC [8] [µg/mL] | MIC (Escherichia coli 926415) [µg/mL] | Mortality and dose (male ICR mice)
CC[C@@H]1NC(=O)[C@@H](CC(C)C)NC(=O)[C@H](CCN)NC(=O)[C@@H](NC(=O)[C@H](CN)NC(=O)[C@@H](NC(=O)[C@H](CCN)NC(=O)CC[C@@H]2NC(=O)[C@H](CCN)NC(=O)[C@H](Cc3ccc(O)cc3)NC(=O)[C@@H](NC(=O)[C@@H](O)C(C)C)CSSC[C@@H](C(=O)N[C@@H](CO)C(=O)N[C@H](CO)C(N)=O)NC(=O)[C@H]([C@@H](C)CC)NC(=O)[C@H](CO)NC(=O)[C@H](Cc3c[nH]c4ccccc34)NC(=O)CNC(=O)[C@@H](CCN)NC2=O)[C@@H](C)O)CCNC(=O)[C@H]([C@@H](C)O)NC(=O)[C@H](CCN)NC(=O)[C@H](CCN)NC1=O [Ex. 376] (I: H-[Hiv]CY[Dab]E[dDab]GWSICS[dS]-NH2 / II: [Dab]T[Dap][Dab][Dab][dL][Abu][Dab][Dab]T; disulfide I:2-I:11; amide I:5-II:N; lactam II:4-II:C) | <1 | 0.0625 | 0.0625 (≈ 0.026 µM) | 0.0625 | 0.125 | 0.5 (≈ 0.208 µM) | 0.25 (≈ 0.104 µM) | 0.0625 | 0.25 (≈ 0.104 µM) | 0/3 died at 2 × 40 mg/kg
CC(C)C[C@@H]1NC(=O)[C@@H](CC(C)C)NC(=O)[C@H](CCN)NC(=O)[C@@H](NC(=O)[C@H](CN)NC(=O)[C@@H](NC(=O)[C@H](CCN)NC(=O)CC[C@@H]2NC(=O)[C@H](CCN)NC(=O)[C@H](Cc3ccc(O)cc3)NC(=O)[C@@H](NC(=O)[C@@H](O)C(C)C)CSSC[C@@H](C(=O)N[C@@H](CO)C(=O)N[C@H](C)C(N)=O)NC(=O)[C@H](C(C)C)NC(=O)[C@H](CO)NC(=O)[C@H](Cc3c[nH]c4ccccc34)NC(=O)[C@H](CO)NC(=O)[C@@H](CCN)NC2=O)[C@@H](C)O)CCNC(=O)[C@H]([C@@H](C)O)NC(=O)[C@H](CCN)NC(=O)[C@H](CCN)NC1=O [Ex. 379] (I: H-[Hiv]CY[Dab]E[dDab]SWSVCS[dA]-NH2 / II: [Dab]T[Dap][Dab][Dab][dL]L[Dab][Dab]T; disulfide I:2-I:11; amide I:5-II:N; lactam II:4-II:C) | <1 | 0.0625 | 1 (≈ 0.412 µM) | 0.0625 | 0.125 | 0.25 (≈ 0.103 µM) | 0.125 (≈ 0.0515 µM) | 0.03125 | 0.25 (≈ 0.103 µM) | 0/3 died at 2 × 40 mg/kg
CC[C@H](C)[C@@H]1NC(=O)[C@H](CO)NC(=O)[C@H](Cc2c[nH]c3ccccc23)NC(=O)[C@H](CO)NC(=O)[C@@H](CCN)NC(=O)[C@H](CCC(=O)N[C@@H](CCN)C(=O)N[C@H](C(=O)N[C@@H](CN)C(=O)N[C@H]2CCNC(=O)[C@H]([C@@H](C)O)NC(=O)[C@H](CCN)NC(=O)[C@H](CCN)NC(=O)[C@H]([C@@H](C)O)NC(=O)[C@@H](CC(C)C)NC(=O)[C@H](CCN)NC2=O)[C@@H](C)O)NC(=O)[C@H](CCN)NC(=O)[C@H](Cc2ccc(O)cc2)NC(=O)[C@@H](NC(=O)[C@@H](NC(C)=O)C(C)C)CSSC[C@@H](C(=O)N[C@@H](CO)C(=O)N[C@H](C)C(N)=O)NC1=O [Ex. 380] (I: Ac-VCY[Dab]E[dDab]SWSICS[dA]-NH2 / II: [Dab]T[Dap][Dab][Dab][dL]T[Dab][Dab]T; disulfide I:2-I:11; amide I:5-II:N; lactam II:4-II:C) | <1 | 0.0625 | 0.125 (≈ 0.0506 µM) | 0.0625 | 0.125 | 0.5 (≈ 0.202 µM) | 0.25 (≈ 0.101 µM) | 0.03125 | 0.125 (≈ 0.0506 µM) | 0/3 died at 2 × 40 mg/kg
